Data as given in EP0141884A1, “Novel phenylpiperazine derivatives, process for preparing them and therapeutic compositions containing them” (JUSTE, S.A. QUIMICO-FARMACEUTICA, priority 1983, dated 1985).

Test system: female Swiss mice
Experiment: Analgesic activity, writhing test (2-phenyl-1,4-benzoquinone as nociceptive agent)
Format: in vivo
Settings: Mus musculus, po, 1 h, Table 1, oral route one hour before i.p. 0.02% 2-phenyl 1-4 benzoquinone, dose reducing writhes by 50%
Method: The studies of analgesic activity for these compounds have been carried out over 2,178 mice by using the "writhing test" method. 2-Phenylbenzoquinone was used as nociceptive agent and the material under test was administered by the oral route. In all the cases the ED50, ED16 and ED84 (minimum dose for each product which reduces the writhes by 50, 16 and 84% respectively) were calculated, as well as the 95% confidence limits for the ED50. The oral acute toxicity study (LD50 determination) has been performed using 770 Swiss mice (half males and half females) weighing 18-22 g.
A slight modification of the method described by Hendershot and Forshait J. Pharmacol. Exp. Ther. 125, 237 (1959) which employs as nociceptive agent a 0.02% hydroalcoholic solution of 2-phenyl 1-4 benzoquinone, was used. 0.2 ml Of this solution was administered by the i.p. route at a constant temperature of 37° C. The administration of this substance produced in the animals abdominal writhes which were easy to count. The animals used were female Swiss mice of weight 20 + 2 g. […] The value of ED50 was calculated according to the method of Litchfield and Wilcoxon J. Pharmacol. Exp. Ther. 99, 96 (1949).

Structure (SMILES): CC(C)Cc1ccc(C(C)C(=O)O)cc1 (stereo not shown) [2(4-isobutylphenyl) propionic acid, reference compound]
- ED50: 4.21 mg/kg
